Results reported in US10494397B2, “Rebaudioside analogs” (PepsiCo, Inc., priority 2016, dated 2019).

Key:
Type in all cases: in vivo, human
[1] = test system: Trained Sensory panelists; assay: Sucrose Equivalence Value, paired comparison with 1.5% sucrose; settings: 25 ppm in aqueous phosphoric acid (pH 3.1), room temperature; p<0.0001
Description: (§1) Trained Sensory panelists (n=25, 3 evaluations each) evaluated Reb B Galactoside in aqueous phosphoric acid (pH 3.1) at room temperature. Rebaudioside B galactoside is not currently approved for use in food or beverages in the United States. Therefore, every person who tasted the samples signed an informed consent form provided by PepsiCo Scientific Affairs before tasting samples. Participation in the tests was completely voluntary. Panelists who chose to participate could choose to stop participation at any time. In order for a test ingredient to be considered an enhancer, it must not be considered a sweetener.

Tasters = assay: Sensory evaluation of test material as a sweetener (taster panel, scale of 1 to 10); parameters: key: not observed or only minimally observed (−); highly observed (+++)
Description: Sample preparation protocol for testing material as a sweetener: Tasters wore noseclips and were blinded to the identity of the test material. Tasters sampled 400 ppm Rebaudioside A and 6.5 Brix sucrose prior to the test material. Reb A 400 ppm was assigned a 5 on the scale of 1 to 10 as shown in FIG. 8 and sucrose (6.5%) was assigned a 10 on the same scale. Tasters were asked to rinse their mouths 5 times with water between tasting each sample. Tasters were then given the test article and asked to rank the test article for sweetness on the noted scale. Tasters were also asked to provide comments about bitterness, linger, flavors, and any other perceptions.
Numerical scores from all tasters were averaged and, taken together with comments regarding sweet quality, bitterness and off-tastes, converted into the symbols “−,” “+,” “++,” and “+++” to indicate whether a given characteristic was not observed or only minimally observed (−) or highly observed (+++). For example, a sample having a “−” in both sweet intensity and bitterness should be understood as a sample having minimal or no sweetness and minimal or no bitter flavor. By contrast, a sample having a “+++” in both sweet intensity and bitterness should be understood as a sample having highly observed sweet intensity and bitterness.
Preparation of Reb A in this experiment: Prepare 400 ppm Reb A in water (pH=7): 40 mg of Rebaudioside A was dissolved with stirring in 100 ml of water at room temperature.
Preparation of Sucrose in this experiment: Prepare 6.5% Sucrose in water (pH=7): weight 6.5 gr of Sucrose and dissolve it in 93.5 gr water (total 100 gr)
• Sweet quality was based upon a temporal profile (sweet onset, linger) and attributes such as syrupy, round, clean.

[2] = test system: Trained Sensory panelists; assay: Sweet enhancement ranking test (4 samples ranked from least sweet to most sweet)
Description: as §1, with “Panelists were asked” for “In order for a test ingredient”, “rank 4 samples from least sweet to most sweet, with 1=least sweet and 4=most sweet As shown in FIGS. 1-3, Enhancement of Reb A, high-fructose corn syrup and sucrose were observed.” for “be considered an enhancer, it must not be considered a sweetener.”

## C=C1C[C@@]23CC[C@H]4[C@@](C)(CCC[C@@]4(C)C(=O)O[C@@H]4O[C@H](CO)[C@H](O)[C@H](O)[C@H]4O)[C@@H]2CC[C@]1(O[C@@H]1O[C@H](CO)[C@@H](O)[C@H](O[C@@H]2O[C@H](CO)[C@@H](O)[C@H](O)[C@H]2O)[C@H]1O[C@@H]1O[C@H](CO)[C@@H](O)[C@H](O)[C@H]1O)C3 [Compound 7D, Rebaudioside B Galactoside]
[1]
  Sucrose Equivalence Value (sweetness compared with 1.5% sucrose): < 1.5 % sucrose
Tasters; averaged taster scores, scale 1 to 10 with Reb A 400 ppm = 5 and sucrose 6.5% = 10, noseclips, blinded
  Sweet Intensity: +++
Tasters; taster comments and scores converted into symbols
  Bitterness: −
[2]; 25 ppm added to HFCS, FIG. 2
  Enhancement of sweetness of High-Fructose Corn Syrup (HFCS): enhances the sweetness
[2]; 25 ppm added to Rebaudioside A, FIG. 1
  Enhancement of sweetness of Rebaudioside A: enhances the sweetness
[2]; 25 ppm added to sucrose, FIG. 3
  Enhancement of sweetness of sucrose: enhances the sweetness
